The record followed here is PubChem BioAssay AID328 (DTP/NCI, 2004).

Where “and” joins values, the source holds several entries; their conditions need not be identical. Equal entries are not always repeated. Toxic doses and inconclusive results are not listed.

The assay concerns BDF1 mice, P388 leukemia ip, median survival T/C. The assay is described as follows: NCI In Vivo Anticancer Drug Screen. Data for tumor model P388 Leukemia (intraperitoneal) in B6D2F1 (BDF1) mice. Conditions: endpoint: median survival time, higher = longer survival. Put shortly: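 Compound-treated tumour-bearing mice were compared with vehicle-treated controls. Survival was recorded, and the value is the treated-group measurement divided by the control-group measurement (T/C).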

The mark [1] stands for this setting: dose: 25.0 mg/kg/injection, schedule: Q01DX009 (ip), vehicle: saline with Tween-80.
[2] abbreviates: dose: 50.0 mg/kg/injection, schedule: Q01DX009 (ip), vehicle: saline with Tween-80.
The mark [3] stands for this setting: dose: 100.0 mg/kg/injection, schedule: Q01DX009 (ip), vehicle: saline with Tween-80.
Where [4] appears, read: dose: 100.0 mg/kg/injection, schedule: Q04DX003 (ip), vehicle: saline.

For the compound `CCOC(=O)c1cnn(C)c1N`, the T/C reads like this: under setting [1], 93 % of control; (dose: 25.0 mg/kg/injection, schedule: Q04DX003 (ip), vehicle: water) 109 % of control; under setting [2], 102 % of control; (dose: 50.0 mg/kg/injection, schedule: Q04DX003 (ip), vehicle: water) 99 % of control; under setting [3], 100 % of control; (dose: 100.0 mg/kg/injection, schedule: Q04DX003 (ip), vehicle: water) 114 % of control. The T/C runs as follows: (dose: 200.0 mg/kg/injection, schedule: Q04DX003 (ip), vehicle: water) 91 % of control; (dose: 400.0 mg/kg/injection, schedule: Q04DX003 (ip), vehicle: water) 116 % of control.

Take `CN1CCC/C(=C(/N)c2ccccc2)S1(=O)=O`: the T/C runs as follows: under setting [2], 104 % of control; under setting [3], 100 % of control; (dose: 200.0 mg/kg/injection, schedule: Q01DX009 (ip), vehicle: saline with Tween-80) 104 % of control.

Take `O=C1c2cccc(O)c2C(=O)c2c(O)cc(CO)cc21`: the T/C (dose: 8.8 mg/kg/injection, schedule: Q01DX010 (ip), vehicle: other) was 100 % of control; the T/C (dose: 10.0 mg/kg/injection, schedule: Q01DX010 (ip), vehicle: carboxymethylcellulose (CMC)) is 122 % of control; the T/C (dose: 10.0 mg/kg/injection, schedule: Q01DX010 (ip), vehicle: other) is 108 % of control; the T/C (dose: 13.0 mg/kg/injection, schedule: Q01DX010 (ip), vehicle: other) is 111 % of control; the T/C (dose: 16.0 mg/kg/injection, schedule: Q01DX009 (ip), vehicle: gum acacia) was 97 % of control; the T/C (dose: 20.0 mg/kg/injection, schedule: Q01DX009 (ip), vehicle: gum acacia) was 106 % of control. Besides, the T/C is 94 % of control (dose: 20.0 mg/kg/injection, schedule: Q01DX010 (ip), vehicle: carboxymethylcellulose (CMC)); 154 % of control (dose: 20.0 mg/kg/injection, schedule: Q01DX010 (ip), vehicle: other); 97 % of control (dose: 25.0 mg/kg/injection, schedule: Q01DX009 (ip), vehicle: gum acacia); 116 % of control (dose: 40.0 mg/kg/injection, schedule: Q01DX010 (ip), vehicle: carboxymethylcellulose (CMC)); 120 % of control (dose: 40.0 mg/kg/injection, schedule: Q01DX010 (ip), vehicle: other); 122 % of control (dose: 80.0 mg/kg/injection, schedule: Q01DX010 (ip), vehicle: carboxymethylcellulose (CMC)).

On to `CC(C)[CH2][Sn]([CH2]C(C)C)([CH2]C(C)C)[C](C)(C)C`, for which the T/C under setting [4] was 103 % of control; the T/C (dose: 200.0 mg/kg/injection, schedule: Q04DX003 (ip), vehicle: saline) was 112 % of control; the T/C (dose: 400.0 mg/kg/injection, schedule: Q04DX003 (ip), vehicle: saline) is 112 % of control.

For `C[C@H]1CC2=CC(=O)CC[C@]2(C)[C@H]2CC[C@@]3(C)[C@@H](CC[C@]3(C)O)[C@H]12`, the T/C is, setting by setting: (dose: 100.0 mg/kg/injection, schedule: Q01DX009 (ip), vehicle: Klucel (hydroxypropylcellulose) (HPC)) 100 % of control; (dose: 100.0 mg/kg/injection, schedule: Q04DX003 (ip), vehicle: Klucel (hydroxypropylcellulose) (HPC)) 100 % of control; (dose: 200.0 mg/kg/injection, schedule: Q01DX009 (ip), vehicle: Klucel (hydroxypropylcellulose) (HPC)) 105 % of control; (dose: 200.0 mg/kg/injection, schedule: Q04DX003 (ip), vehicle: Klucel (hydroxypropylcellulose) (HPC)) 95 % of control; (dose: 400.0 mg/kg/injection, schedule: Q04DX003 (ip), vehicle: Klucel (hydroxypropylcellulose) (HPC)) 100 % of control.

Take `CC1CN(c2ccc([N+](=O)[O-])cc2)C(C)CN1` (configuration not stated): the T/C was 100 % of control (dose: 25.0 mg/kg/injection, schedule: Q04DX003 (ip), vehicle: saline); 110 % of control (dose: 50.0 mg/kg/injection, schedule: Q04DX003 (ip), vehicle: saline); 90 % of control under setting [4].

Take `COc1ccc(C(N)C(=O)O)cc1` (configuration not stated): the T/C (dose: 100.0 mg/kg/injection, schedule: Q01DX001 (ip), vehicle: Klucel (hydroxypropylcellulose) (HPC)) was 100 % of control; the T/C (dose: 200.0 mg/kg/injection, schedule: Q01DX001 (ip), vehicle: Klucel (hydroxypropylcellulose) (HPC)) is 109 % of control; the T/C (dose: 400.0 mg/kg/injection, schedule: Q01DX001 (ip), vehicle: Klucel (hydroxypropylcellulose) (HPC)) was 109 % of control.

Regarding `C=C(C)C(=O)NCC(=O)NC(Cc1ccccc1)C(=O)Oc1ccc([N+](=O)[O-])cc1` (configuration not stated), the T/C is 97 % of control under setting [1], 101 % of control under setting [2] and 99 % of control under setting [3].

As to `CSc1ccccc1C(C)(C)O`, the T/C is 100 % of control (dose: 50.0 mg/kg/injection, schedule: Q01DX009 (ip), vehicle: other); 104 % of control (dose: 100.0 mg/kg/injection, schedule: Q01DX009 (ip), vehicle: other); 113 % of control (dose: 200.0 mg/kg/injection, schedule: Q01DX009 (ip), vehicle: other).

Take `CC1(O)CC(=O)c2c(ccc3c2C(=O)c2cccc(O)c2C3=O)C1` (configuration not stated): the T/C reads like this: (dose: 0.5 mg/kg/injection, schedule: Q01DX009 (ip), vehicle: Klucel (hydroxypropylcellulose) (HPC)) 101 % of control; (dose: 1.0 mg/kg/injection, schedule: Q01DX009 (ip), vehicle: Klucel (hydroxypropylcellulose) (HPC)) 101 % of control; (dose: 2.0 mg/kg/injection, schedule: Q01DX009 (ip), vehicle: Klucel (hydroxypropylcellulose) (HPC)) 109 % of control; (dose: 4.0 mg/kg/injection, schedule: Q01DX009 (ip), vehicle: Klucel (hydroxypropylcellulose) (HPC)) 111 % of control.

In the case of `Cc1cc(C(C(N)=O)c2ccccc2)ccc1N(CCCl)CCCl` (configuration not stated), the T/C is, setting by setting: (dose: 0.22 mg/kg/injection, schedule: Q01DX009 (ip), vehicle: Klucel (hydroxypropylcellulose) (HPC)) 112 % of control; (dose: 0.33 mg/kg/injection, schedule: Q01DX009 (ip), vehicle: Klucel (hydroxypropylcellulose) (HPC)) 108 % of control; (dose: 0.77 mg/kg/injection, schedule: Q01DX009 (ip), vehicle: Klucel (hydroxypropylcellulose) (HPC)) 155 % of control; (dose: 2.34 mg/kg/injection, schedule: Q01DX009 (ip), vehicle: Klucel (hydroxypropylcellulose) (HPC)) 154 % of control; (dose: 4.68 mg/kg/injection, schedule: Q01DX009 (ip), vehicle: Klucel (hydroxypropylcellulose) (HPC)) 186 % of control; (dose: 6.0 mg/kg/injection, schedule: Q04DX003 (ip), vehicle: saline) 118 % of control. In addition, the T/C (dose: 12.37 mg/kg/injection, schedule: Q01DX009 (ip), vehicle: Klucel (hydroxypropylcellulose) (HPC)) was 96 % of control and 205 % of control; the T/C (dose: 13.75 mg/kg/injection, schedule: Q04DX003 (ip), vehicle: Klucel (hydroxypropylcellulose) (HPC)) is 178 % of control; the T/C (dose: 18.75 mg/kg/injection, schedule: Q01DX009 (ip), vehicle: Klucel (hydroxypropylcellulose) (HPC)) was 103 % of control; the T/C (dose: 27.5 mg/kg/injection, schedule: Q04DX003 (ip), vehicle: Klucel (hydroxypropylcellulose) (HPC)) is 213 % of control; the T/C (dose: 28.12 mg/kg/injection, schedule: Q01DX009 (ip), vehicle: Klucel (hydroxypropylcellulose) (HPC)) was 110 % of control; the T/C (dose: 35.0 mg/kg/injection, schedule: Q04DX003 (ip), vehicle: Klucel (hydroxypropylcellulose) (HPC)) is 218 % of control. The T/C reads like this: (dose: 55.0 mg/kg/injection, schedule: Q04DX003 (ip), vehicle: Klucel (hydroxypropylcellulose) (HPC)) 272 % of control and 221 % of control; (dose: 80.0 mg/kg/injection, schedule: Q04DX003 (ip), vehicle: Klucel (hydroxypropylcellulose) (HPC)) 272 % of control.

Regarding `C1O[C@@H]1[C@@H]1CO1`, the T/C reads like this: (dose: 100.0 mg/kg/injection, schedule: Q01DX006 (ip), vehicle: water) 100 % of control; (dose: 100.0 mg/kg/injection, schedule: Q01DX010 (ip), vehicle: water) 104 % of control and 120 % of control; (dose: 200.0 mg/kg/injection, schedule: Q01DX006 (ip), vehicle: water) 100 % of control; (dose: 200.0 mg/kg/injection, schedule: Q01DX010 (ip), vehicle: water) 150 % of control; (dose: 225.0 mg/kg/injection, schedule: Q01DX010 (ip), vehicle: water) 113 % of control; (dose: 300.0 mg/kg/injection, schedule: Q01DX006 (ip), vehicle: water) 100 % of control. In addition, the T/C runs as follows: (dose: 300.0 mg/kg/injection, schedule: Q01DX010 (ip), vehicle: water) 100 % of control; (dose: 335.0 mg/kg/injection, schedule: Q01DX010 (ip), vehicle: water) 90 % of control; (dose: 400.0 mg/kg/injection, schedule: Q01DX006 (ip), vehicle: water) 100 % of control; (dose: 400.0 mg/kg/injection, schedule: Q01DX010 (ip), vehicle: water) 86 % of control and 95 % of control; (dose: 600.0 mg/kg/injection, schedule: Q01DX010 (ip), vehicle: water) 90 % of control.
